According to patent publication US20250353833A1, “DPP9 BINDING COMPOUNDS” (UNIVERSITEIT ANTWERPEN, priority 2022, published 2025):
Where two headings read alike, the source gives them in different places. One block for each molecule: values may come before it.

Experiments:
Type in all cases: biochemical
DPP9 = DPP9 (Homo sapiens (Human), UniProt Q86TI2); test: DPP9 enzyme inhibition, IC50 measurement (Ala-Pro-pNA release); details: for SI DPP9/4: selectivity index DPP9/4; for SI DPP9/8 / SI DPP9/DPP8: selectivity index; for SI DPP9/8: DPP8 IC50 over DPP9 IC50
Protocol: (§1) DPP4 was purified from human seminal plasma as described previously.^[3]
(§2) IC50 measurements. […] The Magellan software was used to process the data, which was then fitted using a non-linear fit model in GraFit 7. […] As a blank, the assay buffer was used instead of the enzyme. Screening measurements were carried out in duplo and IC50 values were determined in triplo with at least eight different inhibitor concentrations as described by Van Goethem et al.

DPP2 = DPP2 (Homo sapiens (Human), UniProt Q9UHL4); test: DPP2 enzyme inhibition, IC50 measurement (Lys-Ala-pNA release); details: mean ± SD (n = 3)
Protocol: as §2

PREP = PREP (Homo sapiens (Human), UniProt P48147); test: PREP enzyme inhibition, IC50 measurement (N-succinyl-Gly-Pro-AMC release); details: mean ± SD (n = 3)
Protocol: as §2

DPP4 = DPP4 (Homo sapiens (Human), UniProt P27487); test: DPP4 enzyme inhibition, IC50 measurement (Ala-Pro-pNA release); details: mean ± SD (n = 3)
Protocol: as §1, §2

DPP8 = DPP8 (Homo sapiens (Human), UniProt Q6V1X1); test: DPP8 enzyme inhibition, IC50 measurement (Ala-Pro-pNA release)
Protocol: as §2

FAP = FAP (Homo sapiens (Human), UniProt Q12884); test: FAP enzyme inhibition, IC50 measurement (Z-Gly-Pro-AMC release); details: for IC50: mean ± SD (n = 3)
[1] = Table 1, mean ± SD (n = 3), read-out: IC50 DPP9
[2] = Table 1, mean ± SD (n = 3), read-out: IC50 DPP8
[3] = Table 2, mean ± SD (n = 3), read-out: IC50 DPP9
[4] = Table 2, mean ± SD (n = 3), read-out: IC50 DPP8
[5] = Table 4, standard method, read-out: IC50 DPP9
[6] = Table 4, standard method, read-out: IC50 DPP8
[7] = Table 3, mean ± SD (n = 3), read-out: DPP9 IC50 ± SD
[8] = Table 3, mean ± SD (n = 3), read-out: DPP8 IC50 ± SD

Chain of DPP9 (Q86TI2 whole entry): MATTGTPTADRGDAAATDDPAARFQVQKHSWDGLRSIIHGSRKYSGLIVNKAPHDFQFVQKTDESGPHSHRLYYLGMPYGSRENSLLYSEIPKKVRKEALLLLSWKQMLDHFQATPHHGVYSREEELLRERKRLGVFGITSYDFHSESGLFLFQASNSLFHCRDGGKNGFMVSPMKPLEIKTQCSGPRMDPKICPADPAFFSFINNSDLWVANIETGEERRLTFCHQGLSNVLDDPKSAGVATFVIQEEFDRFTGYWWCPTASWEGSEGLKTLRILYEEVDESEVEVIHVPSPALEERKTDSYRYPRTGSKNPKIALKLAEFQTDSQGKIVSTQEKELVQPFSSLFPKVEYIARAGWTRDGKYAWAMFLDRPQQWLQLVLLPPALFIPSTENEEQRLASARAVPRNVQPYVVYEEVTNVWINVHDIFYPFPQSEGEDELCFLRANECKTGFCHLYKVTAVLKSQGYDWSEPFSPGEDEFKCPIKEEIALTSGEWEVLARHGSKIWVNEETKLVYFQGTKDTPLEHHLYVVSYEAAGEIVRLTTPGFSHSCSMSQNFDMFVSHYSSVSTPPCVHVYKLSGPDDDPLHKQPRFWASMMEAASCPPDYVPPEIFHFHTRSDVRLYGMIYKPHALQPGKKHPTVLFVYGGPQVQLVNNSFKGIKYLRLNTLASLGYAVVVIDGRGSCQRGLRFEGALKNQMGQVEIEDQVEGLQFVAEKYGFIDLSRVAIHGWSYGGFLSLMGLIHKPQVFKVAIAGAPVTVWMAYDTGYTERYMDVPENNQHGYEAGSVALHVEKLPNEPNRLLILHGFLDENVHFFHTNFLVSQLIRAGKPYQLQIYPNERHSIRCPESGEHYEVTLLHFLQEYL
Chain of FAP (Q12884 27-760): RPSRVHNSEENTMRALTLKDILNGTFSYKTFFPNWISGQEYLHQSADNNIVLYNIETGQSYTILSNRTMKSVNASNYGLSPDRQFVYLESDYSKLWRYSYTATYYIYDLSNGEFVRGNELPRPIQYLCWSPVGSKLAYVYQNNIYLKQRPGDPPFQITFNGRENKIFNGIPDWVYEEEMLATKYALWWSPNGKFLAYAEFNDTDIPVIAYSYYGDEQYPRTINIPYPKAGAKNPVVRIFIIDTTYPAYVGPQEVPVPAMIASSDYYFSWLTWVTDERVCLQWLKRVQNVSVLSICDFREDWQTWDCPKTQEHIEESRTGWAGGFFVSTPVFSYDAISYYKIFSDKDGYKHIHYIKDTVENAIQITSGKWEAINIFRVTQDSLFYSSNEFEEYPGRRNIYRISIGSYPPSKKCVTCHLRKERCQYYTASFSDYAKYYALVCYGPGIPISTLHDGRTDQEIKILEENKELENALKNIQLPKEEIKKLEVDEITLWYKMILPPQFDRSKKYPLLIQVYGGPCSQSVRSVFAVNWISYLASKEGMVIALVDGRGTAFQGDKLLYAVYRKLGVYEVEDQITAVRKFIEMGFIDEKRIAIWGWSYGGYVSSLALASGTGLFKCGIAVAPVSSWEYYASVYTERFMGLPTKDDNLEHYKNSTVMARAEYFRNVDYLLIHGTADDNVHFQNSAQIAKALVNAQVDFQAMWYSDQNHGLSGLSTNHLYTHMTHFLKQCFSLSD
Chain of DPP4 (P27487 whole entry): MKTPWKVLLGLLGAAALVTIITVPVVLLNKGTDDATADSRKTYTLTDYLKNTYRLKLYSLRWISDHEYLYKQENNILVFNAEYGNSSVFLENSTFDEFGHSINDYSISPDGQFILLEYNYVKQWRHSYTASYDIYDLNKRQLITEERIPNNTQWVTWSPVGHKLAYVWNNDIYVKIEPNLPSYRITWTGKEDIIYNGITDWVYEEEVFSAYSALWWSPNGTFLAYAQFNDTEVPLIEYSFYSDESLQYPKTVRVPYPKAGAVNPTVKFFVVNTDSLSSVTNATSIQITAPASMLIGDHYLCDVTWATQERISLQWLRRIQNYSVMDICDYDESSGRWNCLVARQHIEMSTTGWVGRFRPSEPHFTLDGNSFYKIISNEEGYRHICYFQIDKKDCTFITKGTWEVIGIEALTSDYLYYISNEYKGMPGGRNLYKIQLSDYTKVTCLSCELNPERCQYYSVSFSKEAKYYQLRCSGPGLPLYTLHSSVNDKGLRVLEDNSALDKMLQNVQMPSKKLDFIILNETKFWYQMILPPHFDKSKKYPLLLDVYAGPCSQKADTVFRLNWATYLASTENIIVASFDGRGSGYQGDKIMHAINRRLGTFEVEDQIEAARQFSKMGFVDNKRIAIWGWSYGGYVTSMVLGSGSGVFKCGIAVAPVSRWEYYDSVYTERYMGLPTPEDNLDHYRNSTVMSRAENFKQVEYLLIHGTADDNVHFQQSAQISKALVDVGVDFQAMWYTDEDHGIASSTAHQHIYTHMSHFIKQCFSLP
Chain of PREP (P48147 whole entry): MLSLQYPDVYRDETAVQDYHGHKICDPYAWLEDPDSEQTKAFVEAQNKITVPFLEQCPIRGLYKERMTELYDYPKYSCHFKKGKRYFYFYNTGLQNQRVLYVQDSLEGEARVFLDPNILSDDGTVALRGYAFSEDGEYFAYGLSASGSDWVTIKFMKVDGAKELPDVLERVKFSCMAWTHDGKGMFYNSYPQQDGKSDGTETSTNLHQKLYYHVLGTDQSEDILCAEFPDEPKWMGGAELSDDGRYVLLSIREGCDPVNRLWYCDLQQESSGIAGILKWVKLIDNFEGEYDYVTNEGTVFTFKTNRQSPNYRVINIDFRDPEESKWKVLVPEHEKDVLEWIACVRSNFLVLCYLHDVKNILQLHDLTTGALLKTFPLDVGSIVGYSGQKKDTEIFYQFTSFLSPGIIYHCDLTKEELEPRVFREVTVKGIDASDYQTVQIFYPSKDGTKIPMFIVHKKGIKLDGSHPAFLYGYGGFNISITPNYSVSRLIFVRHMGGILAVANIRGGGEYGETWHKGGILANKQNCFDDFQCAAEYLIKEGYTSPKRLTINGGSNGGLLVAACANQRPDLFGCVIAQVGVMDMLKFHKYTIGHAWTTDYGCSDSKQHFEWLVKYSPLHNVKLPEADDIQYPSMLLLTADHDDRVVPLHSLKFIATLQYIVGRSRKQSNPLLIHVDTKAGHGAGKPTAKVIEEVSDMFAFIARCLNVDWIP
Chain of DPP8 (Q6V1X1 whole entry): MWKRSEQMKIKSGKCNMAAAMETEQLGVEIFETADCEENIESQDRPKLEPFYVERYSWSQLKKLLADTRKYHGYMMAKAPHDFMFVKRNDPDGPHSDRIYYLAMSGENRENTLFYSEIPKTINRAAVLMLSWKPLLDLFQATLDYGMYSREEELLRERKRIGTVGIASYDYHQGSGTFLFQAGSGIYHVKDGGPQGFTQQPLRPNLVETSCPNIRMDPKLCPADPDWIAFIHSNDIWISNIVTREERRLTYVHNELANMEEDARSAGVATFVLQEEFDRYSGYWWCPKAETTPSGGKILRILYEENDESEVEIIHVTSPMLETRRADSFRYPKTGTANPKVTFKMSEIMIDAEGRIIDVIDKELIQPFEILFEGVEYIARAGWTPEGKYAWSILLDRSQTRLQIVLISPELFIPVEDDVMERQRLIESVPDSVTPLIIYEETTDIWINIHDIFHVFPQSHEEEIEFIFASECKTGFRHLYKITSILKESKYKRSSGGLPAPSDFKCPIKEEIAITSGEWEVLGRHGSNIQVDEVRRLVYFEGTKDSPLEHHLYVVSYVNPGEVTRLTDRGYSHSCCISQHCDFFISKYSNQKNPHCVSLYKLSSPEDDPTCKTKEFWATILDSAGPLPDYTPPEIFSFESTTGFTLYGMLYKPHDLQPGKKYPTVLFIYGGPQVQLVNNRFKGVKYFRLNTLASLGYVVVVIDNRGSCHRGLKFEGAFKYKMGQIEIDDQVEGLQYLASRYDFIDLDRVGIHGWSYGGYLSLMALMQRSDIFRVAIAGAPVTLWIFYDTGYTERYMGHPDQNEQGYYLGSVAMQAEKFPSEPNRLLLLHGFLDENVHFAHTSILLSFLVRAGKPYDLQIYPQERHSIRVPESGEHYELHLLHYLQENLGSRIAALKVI

Molecule: C=C1C[C@@H](C#N)N(C(=O)CNC23CC4CC(CC(O)(C4)C2)C3)C1 [Compound 5h, (2S)-1-((3-hydroxyadamantan-1-yl)glycyl)-4-methylenepyrrolidine-2-carbonitrile]
IC50 (DPP9; [1]): 260 ± 30 nM
SI DPP9/4 (DPP9; Table 1): 0.9
SI DPP9/8 (DPP9; Table 1): 3.9
IC50 (DPP2; Table 1): > 5000 nM
IC50 (PREP; Table 1): > 10000 nM
IC50 (DPP4; Table 1): 230 ± 70 nM
IC50 (DPP8; [2]): 1000 ± 200 nM
IC50 (FAP; Table 1): > 10000 nM

Molecule: N#C[C@@H]1CCCN1C(=O)CNC12CC3CC(C1)CC(OCc1ccccc1)(C3)C2 [Compound 5a, (S)-1-((-3-(benzyloxy)adamantan-1-yl)glycyl)pyrrolidine-2-carbonitrile]
SI DPP9/8 (DPP9; Table 1): 9.9
IC50 (DPP2; Table 1): > 5000 nM
IC50 (PREP; Table 1): 4300 ± 300 nM
IC50 (DPP8; [2]): 1320 ± 200 nM
IC50 (FAP; Table 1): 4000 ± 4000 nM
inhibition of FAP (FAP; at the tested concentrations): micromolar inhibitor

Molecule: CCCCOC12CC3CC(CC(NCC(=O)N4Cc5ccccc5C4)(C3)C1)C2 [Compound 5s, 2-((-3-butoxyadamantan-1-yl)amino)-1-(isoindolin-2-yl)ethan-1-one]
IC50 (DPP9; [3]): 490 ± 40 nM
SI DPP9/4 (DPP9; Table 2): >20.4
SI DPP9/8 (DPP9; Table 2): 6.4
IC50 (DPP2; Table 2): > 5000 nM
IC50 (PREP; Table 2): > 10000 nM
IC50 (DPP4; Table 2): > 10000 nM
IC50 (DPP8; [4]): 3100 ± 100 nM
IC50 (FAP; Table 2): > 10000 nM

Molecule: CC(C)(C)NC(=O)NC12CC3CC(CC(NCC(=O)N4Cc5cc(F)c(F)cc5C4)(C3)C1)C2.Cl [Compound 85, 1-(tert-butyl)-3-((1s,3r,5R,7S)-3-((2-(5,6-difluoroisoindolin-2-yl)-2-oxoethyl)amino)adamantan-1-yl)urea hydrochloride]
SI DPP9/DPP8 (DPP9; Table 4): 41
IC50 (DPP9; [5]): 32 nM
IC50 (DPP8; [6]): 1330 ± 97 nM

Molecule: Cl.O=C(NC12CC3CC(CC(NCC(=O)N4Cc5ccc(F)cc5C4)(C3)C1)C2)c1ccc(-c2ccccn2)cc1 [Compound 90, N-((1s,3r,5R,7S)-3-((2-(5-fluoroisoindolin-2-yl)-2-oxoethyl)amino)adamantan-1-yl)-4-(pyridin-2-yl)benzamide hydrochloride]
SI DPP9/DPP8 (DPP9; Table 4): 37
IC50 (DPP9; [5]): 3 nM
IC50 (DPP8; [6]): 127 ± 23 nM

Molecule: COC(=O)[C@H](Cc1c[nH]c2ccccc12)NC(=O)OC12CC3CC(CC(NCC(=O)N4Cc5ccc(F)cc5C4)(C3)C1)C2 [Compound 60, Methyl (((3-((2-(5-fluoroisoindolin-2-yl)-2-oxoethyl)amino)adamantan-1-yl)oxy)carbonyl)-L-tryptophanate]
IC50 (DPP9; [7]): 43.8 nM
SI DPP9/8 (DPP9; Table 3): 15.7
IC50 (DPP8; [8]): 689 ± 32.3 nM

Molecule: O=C1CCC(N2C(=O)c3cccc(NCCOCCOC(=O)NC45CC6CC(CC(NCC(=O)N7Cc8ccc(F)cc8C7)(C6)C4)C5)c3C2=O)C(=O)N1 (stereo not shown) [Compound 76, 2-(2-((2-(2,6-Dioxopiperidin-3-yl)-1,3-dioxoisoindolin-4-yl)amino)ethoxy)ethyl (3-((2-(5-fluoroisoindolin-2-yl)-2-oxoethyl)amino)adamantan-1-yl)carbamate]
IC50 (DPP9; [7]): 1.4 nM
SI DPP9/8 (DPP9; Table 3): 6
IC50 (DPP8; [8]): 8 nM

Molecule: O=C(NCc1ccccc1)OC12CC3CC(CC(NCC(=O)N4Cc5ccccc5C4)(C3)C1)C2 [Compound 36, 3-((2-(isoindolin-2-yl)-2-oxoethyl)amino)adamantan-1-yl benzylcarbamate]
IC50 (DPP9; [7]): 73.8 nM
SI DPP9/8 (DPP9; Table 3): 15.6
IC50 (DPP8; [8]): 1150 ± 151 nM

Molecule: CC(C)(C)OC(=O)NC12CC3CC(CC(NCC(=O)N4Cc5ccc(F)cc5C4)(C3)C1)C2 [Compound 46, tert-butyl (3-((2-(5-fluoroisoindolin-2-yl)-2-oxoethyl)amino)adamantan-1-yl)carbamate]
IC50 (DPP9; [7]): 14.3 nM
SI DPP9/8 (DPP9; Table 3): 57.6
IC50 (DPP8; [8]): 824 ± 148 nM

Molecule: N-(-3-((2-(5-fluoroisoindolin-2-yl)-2-oxoethyl)amino)adamantan-1-yl)adamantane-1-carboxamide [Compound 45]
IC50 (DPP9; [7]): 38 ± 10 nM
SI DPP9/8 (DPP9; Table 3): 31
IC50 (DPP8; [8]): 1180 ± 138 nM

Molecule: CCCCOC12CC3CC(CC(NCC(=O)N4C[C@H]5C[C@H]5[C@H]4C#N)(C3)C1)C2 [Compound 5o, (1R,2S,5S)-3-((-3-butoxyadamantan-1-yl)glycyl)-3-azabicyclo[3.1.0]hexane-2-carbonitrile]
IC50 (DPP9; [1]): 990 ± 400 nM
IC50 (DPP2; Table 1): > 5000 nM
IC50 (PREP; Table 1): > 10000 nM
IC50 (DPP8; [2]): > 10000 nM
IC50 (FAP; Table 1): > 10000 nM

Molecule: CCCCOC12CC3CC(CC(NCC(=O)N4C[C@@H](N=[N+]=[N-])C[C@H]4C#N)(C3)C1)C2 [Compound 5g, (2S,4S)-4-azido-1-((3-butoxyadamantan-1-yl)glycyl)pyrrolidine-2-carbonitrile]
IC50 (DPP9; [1]): 35 ± 2 nM
SI DPP9/4 (DPP9; Table 1): 3.8
SI DPP9/8 (DPP9; Table 1): 7.8
IC50 (DPP2; Table 1): > 5000 nM
IC50 (PREP; Table 1): > 10000 nM
IC50 (DPP8; [2]): 270 ± 60 nM
IC50 (FAP; Table 1): > 10000 nM

The remaining lines, values ahead:

IC50 (DPP9; [1]): 120 ± 30 nM
SI DPP9/4 (DPP9; Table 1): 2.3
SI DPP9/8 (DPP9; Table 1): 2.9
IC50 (DPP2; Table 1): 1270 ± 200 nM
IC50 (PREP; Table 1): 8920 ± 1000 nM
IC50 (DPP4; Table 1): 280 ± 10 nM
IC50 (DPP8; [2]): 340 ± 6 nM
IC50 (FAP; Table 1): > 10000 nM
Molecule: C=C1C[C@@H](C#N)N(C(=O)CNC23CC4CC(C2)CC(OCc2ccccc2)(C4)C3)C1 [Compound 5i, (S)-1-((3-(benzyloxy)adamantan-1-yl)glycyl)-4-methylenepyrrolidine-2-carbonitrile]

IC50 (DPP9; [1]): 16 ± 1 nM
SI DPP9/4 (DPP9; Table 1): 2
SI DPP9/8 (DPP9; Table 1): 9.4
IC50 (DPP2; Table 1): > 5000 nM
IC50 (PREP; Table 1): > 10000 nM
IC50 (DPP4; Table 1): 32 ± 3 nM
IC50 (DPP8; [2]): 150 ± 20 nM
IC50 (FAP; Table 1): > 10000 nM
Molecule: N#C[C@@H]1C[C@H](N=[N+]=[N-])CN1C(=O)CNC12CC3CC(CC(O)(C3)C1)C2 [Compound 5d, (2S,4S)-4-azido-1-((-3-hydroxyadamantan-1-yl)glycyl)pyrrolidine-2-carbonitrile]

IC50 (DPP9; [3]): 610 ± 70 nM
SI DPP9/4 (DPP9; Table 2): >16.4
SI DPP9/8 (DPP9; Table 2): 6.5
IC50 (DPP2; Table 2): > 5000 nM
IC50 (PREP; Table 2): > 10000 nM
IC50 (DPP4; Table 2): > 10000 nM
IC50 (DPP8; [4]): 4000 ± 1000 nM
IC50 (FAP; Table 2): > 10000 nM
Molecule: CC(C)OC12CC3CC(CC(NCC(=O)N4Cc5ccccc5C4)(C3)C1)C2 [Compound 5t, 1-(isoindolin-2-yl)-2-((-3-isopropoxyadamantan-1-yl)amino)ethan-1-one]

IC50 (DPP9; [7]): 93.2 ± 39 nM
SI DPP9/8 (DPP9; Table 3): 16.5
IC50 (DPP8; [8]): 1540 ± 101 nM
Molecule: O=C(CNC12CC3CC(C1)CC(NCc1ccc(-c4ccccc4)cc1)(C3)C2)N1Cc2ccccc2C1 [Compound 27, 2-((3-(([1,1′-biphenyl]-4-ylmethyl)amino)adamantan-1-yl)amino)-1-(isoindolin-2-yl)ethan-1-one]

SI DPP9/DPP8 (DPP9; Table 4): 5
IC50 (DPP9; [5]): 20 nM
IC50 (DPP8; [6]): 94 ± 25 nM
Molecule: Cc1ncsc1-c1ccc(CNC(=O)[C@@H]2C[C@@H](O)CN2C(=O)[C@@H](NC(=O)CCOCCOCCOCCC(=O)NC23CC4CC(CC(NCC(=O)N5Cc6ccc(F)cc6C5)(C4)C2)C3)C(C)(C)C)cc1 [Compound 124, (2S,4R)-1-((2S)-2-(tert-butyl)-16-((3-((2-(5-fluoroisoindolin-2-yl)-2-oxoethyl)amino)adamantan-1-yl)amino)-4,16-dioxo-7,10,13-trioxa-3-azahexadecanoyl)-4-hydroxy-N-(4-(4-methylthiazol-5-yl)benzyl)pyrrolidine-2-carboxamide]

IC50 (DPP9; [7]): 443 ± 168 nM
SI DPP9/8 (DPP9; Table 3): 10.8
IC50 (DPP8; [8]): 4780 ± 670 nM
Molecule: CC12CC3CC(C)(C1)CC(NCC(=O)N1Cc4ccc(F)cc4C1)(C3)C2 [Compound 63, 2-((3,5-Dimethyladamantan-1-yl)amino)-1-(5-fluoroisoindolin-2-yl)ethan-1-one]

IC50 (DPP9; [7]): 37.8 ± 13.3 nM
SI DPP9/8 (DPP9; Table 3): 13.4
IC50 (DPP8; [8]): 505 ± 25.7 nM
Molecule: Cl.O=C(NCc1ccccc1)NC12CC3CC(CC(NCC(=O)N4Cc5ccccc5C4)(C3)C1)C2 [Compound 42, 1-benzyl-3-(3-((2-(isoindolin-2-yl)-2-oxoethyl)amino)adamantan-1-yl)urea hydrochloride]

IC50 (DPP9; [7]): 309 ± 60.4 nM
SI DPP9/8 (DPP9; Table 3): 16.9
IC50 (DPP8; [8]): 5220 ± 321 nM
Molecule: COc1ccc2c(c1)CN(C(=O)CNC13CC4CC(C1)CC(NC(=O)OC(C)(C)C)(C4)C3)C2 [Compound 59, tert-butyl (3-((2-(5-methoxyisoindolin-2-yl)-2-oxoethyl)amino)adamantan-1-yl)carbamate]

IC50 (DPP9; [7]): 14.3 nM
SI DPP9/8 (DPP9; Table 3): 12.2
IC50 (DPP8; [8]): 175 ± 33.1 nM
Molecule: O=C(NC(c1ccccc1)c1ccccc1)OC12CC3CC(CC(NCC(=O)N4Cc5ccccc5C4)(C3)C1)C2 [Compound 33, 3-((2-(isoindolin-2-yl)-2-oxoethyl)amino)adamantan-1-yl benzhydrylcarbamate]

IC50 (DPP9; [7]): 48.3 nM
SI DPP9/8 (DPP9; Table 3): 17.0
IC50 (DPP8; [8]): 823 ± 185 nM
Molecule: O=C(NCc1ccc(F)cc1F)OC12CC3CC(CC(NCC(=O)N4Cc5ccccc5C4)(C3)C1)C2 [Compound 39, 3-((2-(isoindolin-2-yl)-2-oxoethyl)amino)adamantan-1-yl (2,4-difluorobenzyl)carbamate]

IC50 (DPP9; [7]): 51.8 ± 15.7 nM
SI DPP9/8 (DPP9; Table 3): 20.3
IC50 (DPP8; [8]): 1050 ± 133 nM
Molecule: CC(C)(C)NC(=O)NC12CC3CC(CC(NCC(=O)N4Cc5ccccc5C4)(C3)C1)C2.Cl [Compound 40, 1-(tert-butyl)-3-(3-((2-(isoindolin-2-yl)-2-oxoethyl)amino)adamantan-1-yl)urea hydrochloride]

IC50 (DPP9; [7]): 3.4 nM
SI DPP9/8 (DPP9; Table 3): 180.3
IC50 (DPP8; [8]): 613 ± 154 nM
Molecule: CC(C)(C)OC(=O)NC12CC3CC(CC(NCC(=O)N4Cc5cc(F)c(F)cc5C4)(C3)C1)C2 [Compound 49]
